In patent US12358931B2, “3-((1R,3s,5S)-3-((7-((5-methyl-1H-pyrazol-3-yl)amino)-1,6-naphthyridin-5-yl)amino)-8-azabicyclo[3.2.1]octan-8-yl) propanenitrile as a JAK kinase inhibitor” (priority 2015, dated 2025):

Columns and labels:
[1] = Pharmacokinetics in plasma and the GI tract in rats; assay type: in vivo, Sprague Dawley rats; settings: oral dosing in preclinical species
Experimental: A test compound was dosed to male Sprague Dawley rats (n=3) as described in Assay 5. […] At all time points, the plasma concentration was below the limit of quantitation of 0.001 μg/mL.

[2] = First in human study of safety, tolerability and pharmacokinetics in healthy subjects; assay type: in vivo; settings: suggested by comparison with other orally administered compounds
Experimental: The compound of Example 1 was evaluated in a double-blinded, randomized, placebo-controlled, single ascending dose (SAD) and multiple ascending dose (MAD) study of safety, tolerability, and pharmacokinetics in healthy subjects. Pharmacokinetic samples were collected up to 72 hours post the final dose in both the SAD study (after the first dose) and MAD study (after 14 days of once-daily dosing). The SAD study enrolled 5 cohorts and the MAD study enrolled 4 cohorts totaling 72 subjects, of which 71 completed the dosing period.
Plasma pharmacokinetic (PK) parameters were determined by non-compartmental analysis using WinNonLin Version 6.4.0 (Pharsight, St Louis, MO). The plasma PK parameter presented here is: • Cmax: maximum concentration in plasma

[3] = system: oxazolone-induced colitis; assay: Mouse model of oxazolone-induced colitis; assay type: in vivo, BALB/C mice; settings: PO, 1, 3, and/or 10 mg/kg BID
Experimental: Oxazolone-induced colitis is an experimental model that has a histological resemblance to human ulcerative colitis (Heller et al. […], 2002, 17, 629-638). Adult BALB/C mice from Harlan were used in the assay. On day 1, animals were lightly anesthetized with isoflurane and the hairs between the shoulder were carefully removed before oxazolone (4%, 150 μL, 4:1 acetone: olive oil formulation) or vehicle solution was slowly applied for skin sensitization. Seven days after skin sensitization, the mice were fasted overnight, anesthetized with isoflurane inhalation, and a 1 mL syringe equipped with a 3.5-F catheter, filled with oxazolone solution, was inserted carefully about 4 cm into the colon of the mouse. Following insertion, 50 μL of the oxazolone solution (1%, 1:1 ethanol:water formulation) was injected very slowly (over 30 sec using an injection pump) into the colon. […] Two-day post oxazolone intrarectal challenge, the Disease Activity Index (DAI) was assessed by treatment-blinded experimenters for each mouse according to the criteria score: stool consistency score (0, normal; 2, loose; 4, diarrhea), gross bleeding score (0, absence; 2, blood tinged; 4, presence), and weight loss score (0, none; 1, 1%-5%; 2, 5%-10%; 3, 10%-20%; 4, more than 20%); DAI=average of (stool consistency score+gross bleeding score+weight loss score). […]

[4] = system: mouse splenic NK, B and T cells; assay: Immunosuppression effects in mouse splenic natural killer (NK) cells; assay type: in vivo, Balb/C mice; settings: for B and T cell populations: mouse spleen; for B and T cell populations / splenic NK cell counts: PO BID three days; for splenic NK cell counts: Example 1 up to 100 mg/kg, tofacitinib 30 mg/kg
Experimental: Depletion of mouse splenic cells is an experimental model of immunosuppression (Kudlacz et al., Am. J. of Transplantation, 2004, 4, 51-57). […] Adult male Balb/C mice (12-14 weeks of age) from Harlan were used for the study. […] Spleens were harvested 1 or 2 h post last dose and crushed immediately for cell subtype staining. Prior to fixation, fluorophore-labelled antibodies for CD19 (FITC; B cells), CD3e (PE; pan T cells) and DX5 (APC; NK cells) were incubated with splenocyte samples from each animal to allow for simultaneous, multiple subtype % analysis on the flow cytometer. The number of total spleen cells for each animal was measured by Scepter™ 2.0 Handheld Automated Cell Counter. The absolute number of lymphocyte subtype population (e.g., splenic B, T and NK cells) was calculated from the percentage of each subtype times total spleen cells for each animal. A one way ANOVA, with Dunnett's post hoc test, was used to compare the splenic lymphocytes number of the vehicle and test compound groups. The a level was set at p<0.05. Data were presented as the mean±SEM for each group.

[5] = Solid state stability assessment; assay type: physicochemical; parameters: unit not given here
Description: At specific intervals, the contents of a representative sample was removed and analyzed by HPLC for chemical purity and by Karl Fischer for water content.

[6] = Experimental: A weighed sample was used and the humidity was lowest possible value (close to 0% RH) at the start of the analysis. The DMS analysis consisted of an initial drying step (0% RH) for 120 minutes, followed by two cycles of sorption and desorption with a scan rate of 5% RH/step over the humidity range of 5% RH to 90% RH. The DMS run was performed isothermally at 25° C.

Structure (SMILES)	exposure throughout the gastrointestinal tract versus plasma [1]	oral bioavailability [2]	decrease in DAI score as compared with vehicle treated animals [3]	B and T cell populations [4]	splenic NK cell counts ([4]; mouse)	effect of immunosuppression ([4]; mouse, same dose required for efficacy in the oxazolone model)	RRT 0.96 ([5]; HPLC peak at RRT 0.96, T = 0)	RRT 0.96 ([5]; HPLC peak at RRT 0.96, T = 1 Month, 40° C./75% RH)	RRT 0.96 ([5]; HPLC peak at RRT 0.96, T = 3 Month, 25° C./60% RH)	RRT 0.96 ([5]; HPLC peak at RRT 0.96, T = 3 Month, 40° C./75% RH)	RRT 1.84 ([5]; HPLC peak at RRT 1.84, T = 0)	RRT 1.84 ([5]; HPLC peak at RRT 1.84, T = 1 Month, 40° C./75% RH)	RRT 1.84 ([5]; HPLC peak at RRT 1.84, T = 3 Month, 25° C./60% RH)	RRT 1.84 ([5]; HPLC peak at RRT 1.84, T = 3 Month, 40° C./75% RH)	weight change (gain) on moisture sorption ([6]; 5% to 90% relative humidity, room temperature, listed as Crystalline 3-(1R,3s,5S)-3-((7-((5-methyl-1H-pyrazol-3-yl)amino)-1,6-naphthyrid)))	hygroscopicity ([6]; two cycles of sorption and desorption)
Cc1cc(Nc2cc3ncccc3c(N[C@@H]3C[C@H]4CC[C@@H](C3)N4CCC#N)n2)n[nH]1 [Example 1, 3-((1R,3s,5S)-3-((7-((5-methyl-1H-pyrazol-3-yl)amino)-1,6-naphthyridin-5-yl)amino)-8-azabicyclo[3.2.1]octan-8-yl)propanenitrile]	significantly higher exposure	very low	demonstrated activity	No treatment effect	unaffected	minimal effect										
Cc1cc(Nc2cc3ncccc3c(N[C@@H]3C[C@H]4CC[C@@H](C3)N4CCC#N)n2)n[nH]1 [Form I, 3-((1R,3s,5S)-3-((7-((5-methyl-1H-pyrazol-3-yl)amino)-1,6-naphthyridin-5-yl)amino)-8-azabicyclo[3.2.1]octan-8-yl)propanenitrile]							0.07	0.07	0.07	0.07	0.08	0.08	0.05	0.05	less than 0.15%	non-hygroscopic
C[C@@H]1CCN(C(=O)CC#N)C[C@@H]1N(C)c1ncnc2[nH]ccc12 [tofacitinib, reference compound]				No treatment effect	dose-dependently and significantly decreased											
